Holding throughout (assay): Antifungal activity by the well-cut diffusion method
What all share (assay type): cell-based

For assay [1], the system named is Microsporum gallinna. The conditions noted are these: for zone of inhibition at 1000 µg/mL: Microsporum, read-out: Inhibition Zone Dimeter (mm) M. gallina. How it is done: (§1) Microsporum canis and Microsporum gallinna were obtained from King Fahad Hospital in Jeddah, Saudi Arabia
(§2) Antifungal Activity by the Well-Cut Diffusion Method:
Well-cut diffusion technique was used to evaluate the antifungal activities of the_tested compounds [El-Masry et al. “Synthesis and antimicrobial activity of some new benzimidazole derivatives” Molecules, 5 (2002), pp. 1429-1438]. The Sabaroud dexterous agar media was inoculated with 1 ml from tested spore suspension, then wells were cut from the plate using a sterile 10 mm cork-borer. About 0.5 and 1.0 ml of a chloroform solution containing 1.0 mg/ml of tested compounds were added into each well. All plates were incubated at 4° C. for 2 h to slow fungal growth. The plates were later incubated at 28° C. for a week [Mtolera and Semesi “Antimicrobial activity of extracts from six green algae from Tanzania.” Curr. Trends Mar. Bot. Res. East Afr. Reg. pp. 211-217 (1996)]. After incubation, the diameter of the growth inhibition zone was measured in mm [Attaie et al. Inhibition of growth of S. aureus during production of acidophilus yogurt J. Food Prot., 50 (1987), pp. 224-228], see Table 3.

Assay [2] concerns Microsporum gallinna. To be noted: for zone of inhibition at 500 µg/mL: Microsporum, read-out: Inhibition Zone Dimeter (mm) M. gallina.
Assay [3] has as its system Microsporum canis. The conditions noted are these: for zone of inhibition at 500 µg/mL / zone of inhibition at 1000 µg/mL: Microsporum canis, read-out: Inhibition Zone Dimeter (mm) M. canis. How it is done:
as §1, §2
Well-cut diffusion technique was used to evaluate the antifungal activities of the_tested compounds [El-Masry et al. “Synthesis and antimicrobial activity of some new benzimidazole derivatives” Molecules, 5 (2002), pp. 1429-1438]. The Sabaroud dexterous agar media was inoculated with 1 ml from tested spore suspension, then wells were cut from the plate using a sterile 10 mm cork-borer. […] All plates were incubated at 4° C. for 2 h to slow fungal growth. The plates were later incubated at 28° C. for a week [Mtolera and Semesi “Antimicrobial activity of extracts from six green algae from Tanzania.” Curr. Trends Mar. Bot. Res. East Afr. Reg. pp. 211-217 (1996)]. After incubation, the diameter of the growth inhibition zone was measured in mm [Attaie et al. Inhibition of growth of S. aureus during production of acidophilus yogurt J. Food Prot., 50 (1987), pp. 224-228], see Table 3.

Where [4] appears, read: Concentration 1.0 mg/mL, 28° C. for a week, 10 mm wells.
Where [5] appears, read: Concentration 0.5 mg/mL, 28° C. for a week, 10 mm wells.

Consider 5 compounds from US10584106B1, “Antifungal compounds derived from lavender oil” (King Abdulaziz University, priority 2018, dated 2020).

Each structure is given as a SMILES string. Read-outs that look alike come from different tables or passages of the source.

In the case of `C=CC(C)(CCC1OC1(C)C)OC(C)=O` (centres unmarked) [Epoxide 3, 6,7-Epoxy-3,7-dimethyl-1-octene-3-yl-acetate], the “Inhibition Zone Dimeter (mm) M. gallina” value is recorded as 74.0 mm in assay [1] (setting [4]) and 37.0 mm in assay [2] (setting [5]). For the same compound, the “inhibition of Microsporum gallinna grown on the solid media (in words)” value (“inhibition of Microsporum gallinna grown” below) in assay [1] is recorded as “strongly inhibited”. Further, the “Inhibition Zone Dimeter (mm) M. canis” value in assay [3] (setting [5]) is reported as 60.0 mm; in assay [3] (setting [4]), 85.0 mm. The “inhibition of Microsporum canis grown on the solid media (in words)” value (from here on “inhibition of Microsporum canis grown”) in assay [3] is reported as “strongly inhibited”.

In the case of `CC(=O)OC(C)(CCC=C(C)C)C1CO1` (centres unmarked) [Epoxide 4, 1,2-Epoxy-3,7-dimethyl-6-octene-3-yl acetate], the zone of inhibition at 1000 µg/mL in assay [1] and in assay [3] (setting [4]) was 85 mm in each case. Also, the “inhibition of Microsporum gallinna grown” value in assay [1] is “strongly inhibited”. Also, the figures for the zone of inhibition at 500 µg/mL in assay [2] and in assay [3] (setting [5]) were 65 mm and 75 mm, respectively. In assay [3], the “inhibition of Microsporum canis grown” value was “strongly inhibited”.

Take `C=CC(C)(CCC=C(C)C)OC(C)=O` (centres unmarked) [Linalyl acetate, 3,7-Dimethyl-1,6-octadien-3-yl acetate, reference compound]: in assay [1], the zone of inhibition at 1000 µg/mL is 85 mm and the “inhibition of Microsporum gallinna grown” value is on record as “strongly inhibited”. Besides, the zone of inhibition at 500 µg/mL in assay [2] was 80 mm. Also, in assay [3], the zone of inhibition at 500 µg/mL was determined as 80 mm, the zone of inhibition at 1000 µg/mL came out at 85 mm and the “inhibition of Microsporum canis grown” value is “strongly inhibited”.

With `C=CC(C)(CC=CC(C)(C)OO)OC(C)=O` (centres unmarked) [Hydroperoxide 6, 7-Hydroperoxy-3,7-dimethylocta-1,5-diene-3-yl acetate], the zone of inhibition at 1000 µg/mL in assay [1] and in assay [3] (setting [4]) was 85 mm throughout. Also, the “inhibition of Microsporum gallinna grown” value in assay [1] was “strongly inhibited”. The zone of inhibition at 500 µg/mL in assay [2] and in assay [3] (setting [5]) was 80 mm throughout. Besides, the “inhibition of Microsporum canis grown” value in assay [3] is reported as “strongly inhibited”.

For the compound `C=CC(C)(CCC(OO)C(=C)C)OC(C)=O` (centres unmarked) [Hydroperoxide 5, 6-Hydroperoxy-3,7-dimethylocta-1,7-diene-3-yl acetate], the zone of inhibition at 1000 µg/mL in assay [1] and in assay [3] (setting [4]) was 85 mm throughout. In addition, the “inhibition of Microsporum gallinna grown” value in assay [1] was “strongly inhibited”. In addition, in assay [2] (0.5 mg/ml concentration), the “antimicrobial activity against M. gallinna, comparison among tested compounds” value was “highest antimicrobial activity”. Further, the zone of inhibition at 500 µg/mL in assay [2] was determined as 80.5 mm; in assay [3] (setting [5]), 81 mm. Also, the “antimicrobial activity against M. canis, comparison among tested compounds” value in assay [3] (0.5 mg/ml concentration) was “highest antimicrobial activity”. Moreover, the “inhibition of Microsporum canis grown” value in assay [3] is given as “strongly inhibited”.
